{
  "source": "patent US10450322B2",
  "about": "“Low molecular weight derivatives of carboxamide halogenated porphyrins, namely chlorins and bacteriochlorins, and their applications thereof” (LUZITIN, S.A., priority 2015, dated 2019)",
  "key": {"[1]": {"experiment": "Photobleaching (photodecomposition quantum yield)", "format": "physicochemical", "conditions": "methanol:PBS (3:2)"}, "[2]": {"experiment": "Optical absorption (UV-Vis-NIR) in ethanol", "format": "physicochemical", "experimental": "The UV-Vis-NIR optical absorption was recorded with an Agilent Cary5000 UV-Vis-NIR Spectrophotometer in the determination of the molar absorption coefficient and with Shimadzu UV-2100 spectrometer in routine measurements. The absorption spectra were recorded in the wavelengths from 300 nm up to 800 nm.\n(§1) This is indicative of negligible aggregation between the molecules, which exist mostly as monomers at these concentrations in the solvents studied. Table 1 presents the infrared molar absorption coefficient (εmax) and wavelength maximum in ethanol of a typical carboxamide halogenated bacteriochlorin derivative of Formula (I). The same table also presents triplet lifetimes (τT) in air and N2 saturated solutions, fluorescence lifetime (τS), the quantum yields of fluorescence (ΦF), triplet state formation (ΦT), and singlet oxygen generation (ΦΔ) in ethanol, and photodegradation quantum yield (Φpd) in methanol:PBS (3:2). Triplet decays were clearly mono-exponential and in air-saturated ethanol the triplet lifetimes were in the range of 200 to 300 nanoseconds. Such values are consistent with diffusion limited energy transfer from the triplet state of the photosensitizer to molecular oxygen through a charge-transfer interaction (8). The absorption intensity of the test compounds in the photobleaching studies followed a mono-exponential decrease as a function of the illumination time."}, "[3]": {"experiment": "Skin permeation: amount of photosensitizer in pig skin after topical formulation", "format": "in vitro ADME", "conditions": "for Concentration average: 6 experiments", "experimental": "Skin permeation was evaluated using a topical formulation containing benzyl alcohol (23%), Kolliphor EL (17%), Transcutol (50%) and water (10%). The photosensitizer added to this formulation corresponded to 1.85% of the mass before its addition, and the gelling agent (Aerosil 200) added corresponded to 5% of the mass before its addition. The photosensitizer was first dissolved in Transcutol and exposed to 3 min of vortex and 5 min of ultrasounds. A mixture of benzyl alcohol and Kolliphor EL was then added. Immediately after, it was mixed in an IKA MIXER at 200 rpm for 5 min and water was added drop-by-drop for 10 min. Finally, the gelling agent, Aerosil 200, was mixed in and the microemulsion gel was obtained. Skin permeation studies were performed in pig skin using samples collected from 5 months old pigs. The hair was removed as well as the underlying fatty layer, before the permeation studies.\nThis example describes the permeation of carboxamide bacteriochlorin with formula IX in pig skin. The topical formulation and the animal model were described in the Materials and Methods section. The permeation was assessed both in terms of the amount of photosensitizer in the skin after designated times of contact between the topical formulation and the skin (incubation time) and in terms of the depth of the permeation in the skin.\nThe assessment of the amount of carboxamide bacteriochlorin with formula IX in the skin after various incubation times involved the following steps: (i) application of 0.30 ml of formulation in 1 cm^2 areas of minipig skin to make 6 independent measurements for the incubation times of 30, 60 and 120 minutes; (ii) cleaning of the surface of the skin at the end of the incubation times; (iii) cutting the skin in small pieces and maceration in 2 ml of dichloromethane with the aid of dispersing machine; (iv) extraction with 10 ml of dichloromethane in a falcon tube for six hours; (v) dilution by a factor of 5 with ethanol. The volume of 200 μl of the test solution was added in triplicate to 96 well plate and fluorescence intensity was detected using a Synergy HT microplate reader form Biotek (California, USA), with an excitation filter of 508/20 nm and emission filter of 760/35 nm, against a calibration curve. The signal of a blank obtained with the same cleaning method was subtracted from the signal of the sample and the concentration of the photosensitizer in each sample was obtained with the calibration curve. A summary of the results can be seen in Table 2."}, "[4]": {"experiment": "Singlet oxygen quantum yield (phosphorescence at 1270 nm)", "format": "physicochemical", "conditions": "in ethanol", "excerpt": "The experiments were run at room temperature using the Nd-YAG laser Spectra-Physics Quanta-Ray GRC-130. The solutions were excited at 355 nm and the phosphorescence of singlet oxygen collected at 1270 nm in a Hamamatsu R5509-42 photomultiplier, cooled to 193 K in a liquid nitrogen chamber, after selection of the wavelength with a monochromator with 600 lines grading. Phenalenone was used as a reference of singlet oxygen generator. A Newport filter model 10LWF-1000-B was used in the emission to avoid scattering and fluorescence.\nas §1, with “Such values are consistent with diffusion limited energy transfer from the triplet state of the photosensitizer to molecular oxygen through a charge-transfer interaction (8). The absorption intensity of the test compounds in the photobleaching studies followed a mono-exponential decrease as a function of the illumination time.” left out"}, "P. acnes (ATCC 6919)": {"test_system": "P. acnes (ATCC 6919)", "experiment": "In vitro phototoxicity towards Propionibacterium acnes", "format": "cell-based", "conditions": "2 μM, 30 min incubation, irradiated with 10 J/cm^2", "experimental": "Phototoxicity towards bacteria was evaluated in vitro against P. acnes (ATCC® 6919—Remel, Lenexa, Kans., USA) using light with the appropriate wavelength. P. acnes bacteria was cultured in Reinforced Clostridial Medium (Oxoid, Basingstok, UK) under anaerobic atmosphere at 37° C. Anaerobic growth conditions were obtained using an anaerobic jar with a sachet for anaerobic conditions generation (Anaerocult A, Merck, Darmstadt, Germany). P. acnes suspension was diluted with culture medium to an optical density at 620 nm of 1.3, corresponding to approximately […] CFU/ml (colony-forming units per milliliter). The diluted suspension was centrifuged at 13000 rpm for 10 minutes, and re-suspended in PBS. Test compound stock solutions were dissolved in PEG400:DMSO ([…] 400:dimethyl sulfoxide) (55:45) and were diluted to the appropriate concentrations with PBS. The incubation of the test compounds with P. acnes was performed in DB Falcon black 96-well plates with clear flat-bottom (Franklin Lakes, N.J., USA), in the absence of light, during 30 minutes. […] After the incubation period, the viability of P. acnes was evaluated. […] The phototoxicity was measured according to the description in the Materials and Methods section. […]"}},
  "data": [
    {"smiles": "CNC(=O)c1c2nc(c(-c3c(F)cccc3F)c3ccc(cc4nc(c(-c5c(F)cccc5F)c5ccc1[nH]5)CC4)[nH]3)CC2", "note": "[formula IX, 5-methylcarboxamide-10,20-bis-(2,6-difluorophenyl)bacteriochlorin]", "values": [
      {"measurement": "Φpd photodecomposition quantum yield", "setting": "[1]", "value": "1.5 10^−4"},
      {"measurement": "λ (wavelength of maximum infrared absorption)", "setting": "[2]", "value": 734, "unit": "nm"},
      {"measurement": "ε (λ) molar absorption coefficient", "setting": "[2]; at 734 nm", "value": "69 10^3 M^−1 cm^−1"},
      {"measurement": "flux of the photosensitizer to the skin Jmax", "setting": "[3]; attained in 1.5 hours, topical formulation", "value": "4×10^−8 mol/(cm^2 h)"},
      {"measurement": "Mass in the skin", "setting": "[3]; incubation time 30 min", "value": "5.41 ± 1.33", "unit": "μg/cm^2"},
      {"measurement": "Concentration average", "setting": "[3]; incubation time 30 min", "value": 0.909, "unit": "µM"},
      {"measurement": "Mass in the skin", "setting": "[3]; incubation time 60 min", "value": "19.9 ± 5.12", "unit": "μg/cm^2"},
      {"measurement": "Concentration average", "setting": "[3]; incubation time 60 min", "value": 3.34, "unit": "µM"},
      {"measurement": "Mass in the skin", "setting": "[3]; incubation time 120 min", "value": "37.2 ± 7.45", "unit": "μg/cm^2"},
      {"measurement": "Concentration average", "setting": "[3]; incubation time 120 min", "value": 6.26, "unit": "µM"},
      {"measurement": "ΦΔ singlet oxygen quantum yield", "setting": "[4]", "value": 0.38},
      {"measurement": "log CFU P. Acnes (reduction of bacterial CFU, orders of magnitude)", "setting": "P. acnes (ATCC 6919)", "value": 9, "unit": "log CFU"}
    ]}
  ]
}
